Measured values: ChEMBL document CHEMBL3112576, “Synthesis and biological evaluation of a new series of ebselen derivatives as glutathione peroxidase (GPx) mimics and cholinesterase inhibitors against Alzheimer's disease” (Bioorg Med Chem, 2014)
pIC50: −log10 of the molar value. Activity calls are given as the source filed them. No cut-off for these calls is given here.

Key:
[1] = GPx-like activity of the compound using GSH/variable H2O2 as substrate by Lineweaver-burk plot analysis; type: physicochemical
[2] = GPx-like activity of the compound using variable GSH/H2O2 as substrate assessed as catalytic efficiency by Lineweaver-burk plot analysis; type: physicochemical
[3] = GPx-like activity of the compound using 1.5 mM GSH/H2O2 as substrate assessed as GSH-mediated H2O2 reduction at 80 uM at pH 7.5 measured for 10 secs by spectrophotometric analysis; type: physicochemical; conditions: pH 7.5, 10 s
[4] = GPx-like activity of the compound using GSH/variable H2O2 as substrate assessed as catalytic efficiency by Lineweaver-burk plot analysis; type: physicochemical
Acetylcholinesterase [5] = molecular target: Acetylcholinesterase (Homo sapiens, UniProt P22303); assay: Inhibition of human erythrocyte acetylcholinesterase using acetylthiocholine chloride as substrate preincubated for 15 mins followed by substrate addition by Ellman's method
[6] = GPx-like activity of the compound using 1 mM GSH/H2O2 as substrate assessed as GSH-mediated H2O2 reduction at 80 uM at pH 7.5 measured for 10 secs by spectrophotometric analysis; type: physicochemical; conditions: pH 7.5, 10 s
[7] = GPx-like activity of the compound using 2 mM GSH/H2O2 as substrate assessed as GSH-mediated H2O2 reduction at 80 uM at pH 7.5 measured for 10 secs by spectrophotometric analysis; type: physicochemical; conditions: pH 7.5, 10 s
[8] = GPx-like activity of the compound using 3 mM GSH/H2O2 as substrate assessed as GSH-mediated H2O2 reduction at 80 uM at pH 7.5 measured for 10 secs by spectrophotometric analysis; type: physicochemical; conditions: pH 7.5, 10 s
Acetylcholinesterase [9] = molecular target: Acetylcholinesterase (Electrophorus electricus, UniProt O42275)
Description: Inhibition of electric eel acetylcholinesterase using acetylthiocholine chloride as substrate preincubated for 15 mins followed by substrate addition by Ellman's method

[10] = GPx-like activity of the compound using 4 mM GSH/H2O2 as substrate assessed as GSH-mediated H2O2 reduction at 80 uM at pH 7.5 measured for 10 secs by spectrophotometric analysis; type: physicochemical; conditions: pH 7.5, 10 s
[11] = GPx-like activity of the compound using GSH/1.2 mM H2O2 as substrate assessed as GSH-mediated H2O2 reduction at 80 uM at pH 7.5 measured for 10 secs by spectrophotometric analysis; type: physicochemical; conditions: pH 7.5, 10 s
Cholinesterase = Cholinesterase (Equus caballus, UniProt P81908)
Description: Inhibition of equine serum butyrylcholinesterase using butyrylthiocholine chloride as substrate preincubated for 15 mins followed by substrate addition by Ellman's method

[12] = GPx-like activity of the compound using GSH/1 mM H2O2 as substrate assessed as GSH-mediated H2O2 reduction at 80 uM at pH 7.5 measured for 10 secs by spectrophotometric analysis; type: physicochemical; conditions: pH 7.5, 10 s
[13] = GPx-like activity of the compound using variable GSH/H2O2 as substrate by Lineweaver-burk plot analysis; type: physicochemical
[14] = GPx-like activity of the compound using GSH/0.8 mM H2O2 as substrate assessed as GSH-mediated H2O2 reduction at 80 uM at pH 7.5 measured for 10 secs by spectrophotometric analysis; type: physicochemical; conditions: pH 7.5, 10 s
[15] = GPx-like activity of the compound using GSH/1.4 mM H2O2 as substrate assessed as GSH-mediated H2O2 reduction at 80 uM at pH 7.5 measured for 10 secs by spectrophotometric analysis; type: physicochemical; conditions: pH 7.5, 10 s
[16] = GPx-like activity of the compound using GSH/1.6 mM H2O2 as substrate assessed as GSH-mediated H2O2 reduction at 80 uM at pH 7.5 measured for 10 secs by spectrophotometric analysis; type: physicochemical; conditions: pH 7.5, 10 s
[17] = Antioxidant activity assessed as H2O2 scavenging activity at 50 to 200 uM after 10 hrs by ferrous ion oxidation-xylenol orange assay; type: functional

Chain of Acetylcholinesterase (Homo sapiens, UniProt P22303) (P22303 whole entry): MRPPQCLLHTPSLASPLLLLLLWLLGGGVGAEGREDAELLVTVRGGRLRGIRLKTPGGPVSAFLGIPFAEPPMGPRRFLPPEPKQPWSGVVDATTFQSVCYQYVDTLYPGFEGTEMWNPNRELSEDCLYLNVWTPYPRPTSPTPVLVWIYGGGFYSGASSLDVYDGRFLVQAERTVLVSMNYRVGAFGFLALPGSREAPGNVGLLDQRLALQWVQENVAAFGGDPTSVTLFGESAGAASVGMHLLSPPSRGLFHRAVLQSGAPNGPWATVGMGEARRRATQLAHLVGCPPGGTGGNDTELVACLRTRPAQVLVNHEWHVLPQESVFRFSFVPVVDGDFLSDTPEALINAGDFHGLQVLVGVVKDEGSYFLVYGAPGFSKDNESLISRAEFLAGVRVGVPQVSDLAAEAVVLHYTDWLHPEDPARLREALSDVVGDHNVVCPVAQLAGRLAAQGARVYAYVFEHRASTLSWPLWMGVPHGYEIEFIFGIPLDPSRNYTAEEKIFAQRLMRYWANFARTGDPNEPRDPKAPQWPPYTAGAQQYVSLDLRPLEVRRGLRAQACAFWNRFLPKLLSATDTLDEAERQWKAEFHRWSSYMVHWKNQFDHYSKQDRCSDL
Chain of Acetylcholinesterase (Electrophorus electricus, UniProt O42275) (O42275 whole entry): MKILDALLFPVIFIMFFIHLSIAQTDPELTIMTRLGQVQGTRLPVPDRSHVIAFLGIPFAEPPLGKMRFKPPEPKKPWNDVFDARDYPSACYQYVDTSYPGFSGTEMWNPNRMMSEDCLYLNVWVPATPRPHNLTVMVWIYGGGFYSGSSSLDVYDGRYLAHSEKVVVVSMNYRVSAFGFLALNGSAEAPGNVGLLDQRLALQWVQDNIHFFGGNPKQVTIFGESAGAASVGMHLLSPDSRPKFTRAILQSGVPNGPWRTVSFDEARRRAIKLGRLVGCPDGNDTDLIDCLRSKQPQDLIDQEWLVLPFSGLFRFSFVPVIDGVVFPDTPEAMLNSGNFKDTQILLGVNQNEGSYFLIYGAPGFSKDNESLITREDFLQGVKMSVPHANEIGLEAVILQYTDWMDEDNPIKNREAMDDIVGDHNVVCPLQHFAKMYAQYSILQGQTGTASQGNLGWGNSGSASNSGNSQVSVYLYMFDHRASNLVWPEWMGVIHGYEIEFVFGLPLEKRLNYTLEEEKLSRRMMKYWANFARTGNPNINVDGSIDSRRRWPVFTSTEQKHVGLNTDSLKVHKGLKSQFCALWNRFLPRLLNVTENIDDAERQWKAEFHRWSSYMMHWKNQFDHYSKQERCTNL
Chain of Cholinesterase (P81908 whole entry): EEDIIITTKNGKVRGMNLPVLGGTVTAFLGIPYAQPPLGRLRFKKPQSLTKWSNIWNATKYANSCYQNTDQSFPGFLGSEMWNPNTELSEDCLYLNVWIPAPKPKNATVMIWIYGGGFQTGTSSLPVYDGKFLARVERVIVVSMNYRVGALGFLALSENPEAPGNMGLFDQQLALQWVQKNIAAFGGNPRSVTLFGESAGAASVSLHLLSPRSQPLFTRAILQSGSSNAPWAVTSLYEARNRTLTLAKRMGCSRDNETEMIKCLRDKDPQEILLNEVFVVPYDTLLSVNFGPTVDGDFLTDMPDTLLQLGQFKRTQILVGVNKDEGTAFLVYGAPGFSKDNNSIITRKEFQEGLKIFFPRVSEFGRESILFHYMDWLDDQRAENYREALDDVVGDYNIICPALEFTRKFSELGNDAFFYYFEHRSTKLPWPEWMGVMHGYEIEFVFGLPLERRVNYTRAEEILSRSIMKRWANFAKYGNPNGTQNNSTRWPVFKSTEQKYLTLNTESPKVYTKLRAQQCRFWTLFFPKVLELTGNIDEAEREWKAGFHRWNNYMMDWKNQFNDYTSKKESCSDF

SMILES	Kcat [1]	Vmax [1]	Activity [2]	Activity [3]	Activity [4]	pIC50 (Acetylcholinesterase [5])	Activity [6]	Activity [7]	Activity [8]	pIC50 (Acetylcholinesterase [9])	Activity [10]	Activity [11]	pIC50 (Cholinesterase)	Activity [12]	Kcat [13]	Vmax [13]	Activity [14]	Activity [15]	Activity [16]	Activity [17]
O=c1c2ccccc2[se]n1-c1ccccc1 [EBSELEN]	0.0393 s⁻¹	188.68 µM/min	1.64 mM⁻¹ min⁻¹	130.27 µM/min	2.85 mM⁻¹ min⁻¹	< 4.82	88.35 µM/min	152.18 µM/min	166.44 µM/min	< 4.82	183.19 µM/min	107.82 µM/min	4.98	105.89 µM/min	0.0642 s⁻¹	307.69 µM/min	92.43 µM/min	119.01 µM/min	125.93 µM/min	Active
COc1cc2[se]n(-c3ccc(OCCCCN4CCCCC4)cc3)c(=O)c2cc1OC	–	–	–	–	–	5.47	–	–	–	5.36	–	–	5.24	–	–	–	–	–	–	–
O=c1c2ccccc2[se]n1-c1ccc(CN2CCCCC2)cc1	–	–	–	–	–	4.96	–	–	–	5.63	–	–	5.25	–	–	–	–	–	–	–
COc1cc2[se]n(-c3ccc(CCN4CCCCC4)cc3)c(=O)c2cc1OC	–	–	–	–	–	4.98	–	–	–	5.41	–	–	< 4.82	–	–	–	–	–	–	–
COc1cc2[se]n(-c3ccc(CN4CCCC4)cc3)c(=O)c2cc1OC	–	–	–	–	–	5.37	–	–	–	5.97	–	–	4.87	–	–	–	–	–	–	–
O=c1c2ccccc2[se]n1-c1ccc(CCN2CCCC2)cc1	–	–	–	–	–	< 4.82	–	–	–	< 4.82	–	–	5.20	–	–	–	–	–	–	–
COc1cc2[se]n(-c3ccc(OCCN4CCCCC4)cc3)c(=O)c2cc1OC	0.066 s⁻¹	316.46 µM/min	1.4 mM⁻¹ min⁻¹	110.89 µM/min	0.74 mM⁻¹ min⁻¹	6.35	77.43 µM/min	126.72 µM/min	150.13 µM/min	6.34	164.86 µM/min	98.87 µM/min	5.01	76.93 µM/min	0.0577 s⁻¹	276.24 µM/min	53.36 µM/min	109.83 µM/min	122.64 µM/min	Active
COc1cc2[se]n(-c3ccc(OCCCN4CCCCC4)cc3)c(=O)c2cc1OC	–	–	–	–	–	5.29	–	–	–	5.35	–	–	5.24	–	–	–	–	–	–	–
COc1cc2[se]n(-c3ccc(CCN4CCCC4)cc3)c(=O)c2cc1OC	–	–	–	–	–	4.86	–	–	–	5.36	–	–	< 4.82	–	–	–	–	–	–	–
COc1cc2[se]n(-c3ccc(CN(C)Cc4ccccc4)cc3)c(=O)c2cc1OC	–	–	–	–	–	< 4.82	–	–	–	5.77	–	–	5.44	–	–	–	–	–	–	–
COc1cc2[se]n(-c3ccc(CN4CCCCC4)cc3)c(=O)c2cc1OC	0.1812 s⁻¹	869.57 µM/min	1.63 mM⁻¹ min⁻¹	130.27 µM/min	1.45 mM⁻¹ min⁻¹	5.84	88.35 µM/min	147.84 µM/min	166.44 µM/min	6.12	185.66 µM/min	121.72 µM/min	< 4.82	109.44 µM/min	0.0643 s⁻¹	308.64 µM/min	81.43 µM/min	132.29 µM/min	150.53 µM/min	Active
O=c1c2ccccc2[se]n1-c1ccc(OCCN2CCCCC2)cc1	–	–	–	–	–	4.96	–	–	–	5.25	–	–	5.71	–	–	–	–	–	–	–
